{"source": "ChEMBL document CHEMBL3286321", "about": "“Facile Synthesis and Preliminary Structure-Activity Analysis of New Sulfonamides Against Trypanosoma brucei” (ACS Med Chem Lett, 2014)", "key": {"[1]": {"tested_on": "Trypanosoma brucei brucei", "test": "Trypanocidal activity against logarithmic phase of Trypanosoma brucei brucei 427 assessed as inhibition of parasite viability after 48 hrs by Alamar blue viability assay", "format": "functional, organism-based", "conditions": "Trypanosoma brucei, 427, 48 h"}, "[2]": {"test": "Selectivity index, ratio of IC50 for HEK293 cells to IC50 for Trypanosoma brucei brucei 427", "format": "toxicity, cell-based", "conditions": "human, read-out: Ratio IC50"}, "[3]": {"tested_on": "Trypanosoma brucei brucei", "test": "Trypanocidal activity against logarithmic phase of Trypanosoma brucei brucei 427 assessed as inhibition of parasite viability at 10 uM after 48 hrs by Alamar blue viability assay", "format": "functional", "conditions": "Trypanosoma brucei, 427, 48 h"}}}
{"smiles": "CCS(=O)(=O)N1CCCc2ccc(NS(=O)(=O)c3cccc(F)c3)cc21", "values": [{"measurement": "IC50", "setting": "[1]", "result": 7.8, "unit": "µM"}, {"measurement": "selectivity ratio", "setting": "[2]", "result": 11.2}]}
{"smiles": "CCCS(=O)(=O)N1CCCc2ccc(NS(=O)(=O)c3ccc(C(C)C)cc3)cc21", "values": [{"measurement": "IC50", "setting": "[1]", "result": 1.71, "unit": "µM"}, {"measurement": "selectivity ratio", "setting": "[2]", "result": 8.9}]}
{"smiles": "CCS(=O)(=O)N1CCCc2ccc(NS(=O)(=O)c3cccs3)cc21", "values": [{"measurement": "IC50", "setting": "[1]", "result": 4, "unit": "µM"}, {"measurement": "selectivity ratio", "setting": "[2]", "result": 20.8}]}
{"smiles": "CCS(=O)(=O)N1CCCc2ccc(NS(=O)(=O)c3ccc(F)cc3)cc21", "values": [{"measurement": "IC50", "setting": "[1]", "result": 7.8, "unit": "µM"}, {"measurement": "selectivity ratio", "setting": "[2]", "result": 11.8}]}
{"smiles": "CCS(=O)(=O)Nc1ccc2c(c1)N(S(=O)(=O)CC)CCC2", "values": [{"measurement": "inhibition at 10 µM", "setting": "[3]", "result": 14, "unit": "%"}]}
{"smiles": "CCS(=O)(=O)N1CCCc2ccc(NS(=O)(=O)c3c(F)cccc3F)cc21", "values": [{"measurement": "inhibition at 10 µM", "setting": "[3]", "result": 82, "unit": "%"}]}
{"smiles": "CCCS(=O)(=O)N1CCCc2ccc(NS(=O)(=O)c3cccs3)cc21", "values": [{"measurement": "inhibition at 10 µM", "setting": "[3]", "result": "< 10", "unit": "%"}]}
{"smiles": "CCS(=O)(=O)N1CCCc2ccc(NS(=O)(=O)c3ccc(C)cc3)cc21", "values": [{"measurement": "IC50", "setting": "[1]", "result": 3.4, "unit": "µM"}, {"measurement": "selectivity ratio", "setting": "[2]", "result": 25.8}]}
{"smiles": "CCS(=O)(=O)N1CCCc2ccc(NS(=O)(=O)c3ccc(Br)cc3F)cc21", "values": [{"measurement": "IC50", "setting": "[1]", "result": 9.9, "unit": "µM"}, {"measurement": "selectivity ratio", "setting": "[2]", "result": 9}]}
{"smiles": "CCCS(=O)(=O)N1CCCc2ccc(NS(=O)(=O)c3ccc(C)cc3)cc21", "values": [{"measurement": "IC50", "setting": "[1]", "result": 1.84, "unit": "µM"}, {"measurement": "selectivity ratio", "setting": "[2]", "result": 29}]}
{"smiles": "CCS(=O)(=O)N1CCCc2ccc(NS(=O)(=O)c3ccccc3F)cc21", "values": [{"measurement": "selectivity ratio", "setting": "[2]", "result": 32}]}
{"smiles": "CCCS(=O)(=O)N1CCCc2ccc(NS(=O)(=O)c3ccccc3F)cc21", "values": [{"measurement": "IC50", "setting": "[1]", "result": 3.5, "unit": "µM"}, {"measurement": "selectivity ratio", "setting": "[2]", "result": 24.3}]}
{"smiles": "CCCS(=O)(=O)N1CCCc2ccc(NS(=O)(=O)c3ccccc3C)cc21", "values": [{"measurement": "inhibition at 10 µM", "setting": "[3]", "result": 11, "unit": "%"}]}
{"smiles": "CCCS(=O)(=O)N1CCCc2ccc(NS(=O)(=O)c3c(C)c(C)c(C)c(C)c3C)cc21", "values": [{"measurement": "IC50", "setting": "[1]", "result": 7.9, "unit": "µM"}, {"measurement": "selectivity ratio", "setting": "[2]", "result": 11.4}]}
{"smiles": "Cc1ccc(S(=O)(=O)Nc2ccc3c(c2)N(S(=O)(=O)c2ccc(C)cc2)CCC3)cc1", "values": [{"measurement": "IC50", "setting": "[1]", "result": 3.9, "unit": "µM"}, {"measurement": "selectivity ratio", "setting": "[2]", "result": 1.8}]}
{"smiles": "CCCS(=O)(=O)N1CCCc2ccc(NS(=O)(=O)c3ccc(C)cc3C)cc21", "values": [{"measurement": "IC50", "setting": "[1]", "result": 9, "unit": "µM"}, {"measurement": "selectivity ratio", "setting": "[2]", "result": 10.4}]}
{"smiles": "Cc1ccc(S(=O)(=O)N2CCCc3ccc(NS(=O)(=O)c4cccs4)cc32)cc1", "values": [{"measurement": "IC50", "setting": "[1]", "result": 7.9, "unit": "µM"}, {"measurement": "selectivity ratio", "setting": "[2]", "result": 1.7}]}
{"smiles": "CCCS(=O)(=O)N1CCCc2ccc(NS(=O)(=O)c3cccc(C)c3)cc21", "values": [{"measurement": "inhibition at 10 µM", "setting": "[3]", "result": "< 10", "unit": "%"}]}
{"smiles": "CCS(=O)(=O)N1CCCc2ccc(NS(=O)(=O)CC(F)(F)F)cc21", "values": [{"measurement": "inhibition at 10 µM", "setting": "[3]", "result": 18, "unit": "%"}]}
{"smiles": "CCCS(=O)(=O)N1CCCc2ccc(NS(=O)(=O)c3ccc(-c4ccccc4)cc3)cc21", "values": [{"measurement": "IC50", "setting": "[1]", "result": 5.7, "unit": "µM"}, {"measurement": "selectivity ratio", "setting": "[2]", "result": 16.6}]}
{"smiles": "CCS(=O)(=O)N1CCCc2ccc(NS(=O)(=O)c3c(F)c(F)c(F)c(F)c3F)cc21", "values": [{"measurement": "inhibition at 10 µM", "setting": "[3]", "result": 94, "unit": "%"}]}
{"smiles": "O=S(=O)(Nc1ccc2c(c1)N(S(=O)(=O)c1cccs1)CCC2)c1cccs1", "values": [{"measurement": "inhibition at 10 µM", "setting": "[3]", "result": 35, "unit": "%"}]}
{"smiles": "Cc1ccc(S(=O)(=O)Nc2ccc3c(c2)N(S(=O)(=O)c2cccs2)CCC3)cc1", "values": [{"measurement": "IC50", "setting": "[1]", "result": 3.1, "unit": "µM"}, {"measurement": "selectivity ratio", "setting": "[2]", "result": 2.5}]}
{"smiles": "CCS(=O)(=O)N1CCCc2ccc(NS(=O)(=O)c3ccc(Cl)s3)cc21", "values": [{"measurement": "IC50", "setting": "[1]", "result": 13.1, "unit": "µM"}, {"measurement": "selectivity ratio", "setting": "[2]", "result": 6.9}]}
{"smiles": "CCCS(=O)(=O)N1CCCc2ccc(NS(=O)(=O)c3cc(C)cc(C)c3)cc21", "values": [{"measurement": "inhibition at 10 µM", "setting": "[3]", "result": "< 10", "unit": "%"}]}
{"smiles": "CCS(=O)(=O)N1CCCc2ccc(NS(=O)(=O)c3ccc(Br)s3)cc21", "values": [{"measurement": "IC50", "setting": "[1]", "result": 11.2, "unit": "µM"}, {"measurement": "selectivity ratio", "setting": "[2]", "result": 7.7}]}
